# Measured values reported in patent US20080206231A1, “Compositions and Methods for Treating Disease” (OREGON HEALTH AND SCIENCE UNIVERSITY, priority 2004, published 2008).
# Key:
# IGF-IR = target: T1, IGF-IR (Homo sapiens, UniProt P08069); experiment: IGF-IR expression, Western immunoblot in MCF-7 cells; assay type: cell-based; details: Herstatin-expressing MCF-7 cells vs control
# T1 construct: Lysates from control and Herstatin-expressing MCF-7 cells were prepared from respective untreated (no insulin) cells; endogenous in cells; host or cells: MCF-7 (control and Herstatin-expressing clones)
# Method: (§1) Western blot analysis, and antibodies. For Western blot analyses, whole-cell lysates or immunoprecipitated proteins were resolved by SDS-PAGE and transferred onto nitrocellulose membranes (BioRad, Hercules, Calif.). Blots were blocked in 5% milk and incubated with primary antibody overnight at 4° C. The antibodies included anti-insulin receptor (IR; against the β subunit), anti-IGF-IR, anti-IRS-1, anti-IRS-2, anti-phosphotyrosine, anti-phospho-Akt, anti-Akt, anti-phospho-ERK, anti-ERK, and anti-Shc antibodies (Santa Cruz Biotechnology, Transduction Laboratories, Cell Signaling Technologies, Upstate Laboratories, or Biosource). After washing, the blots were incubated with secondary antibody conjugated to HRP for 30 min (BioRad, Hercules, Calif.). The membranes were developed with SuperSignal™ West Dura (Pierce, Rockford, Ill.) and exposed to x-ray film.
# (§2) Results. […] Lysates from control and Herstatin-expressing MCF-7 cells were prepared from respective untreated (no insulin) cells following overnight incubation in serum-free media, and processed directly or (in the case of the IR) also immunoprecipitated prior to Western immunoblot analysis as described in relation to FIG. 2.
# insulin receptor (IR) [1] = target: T2, insulin receptor (IR) (Homo sapiens, UniProt P06213); experiment: IR expression and activation, Western immunoblot in MCF-7 cells; assay type: cell-based; design: whole-cell lysates were prepared at the indicated times and processed directly for Western immunoblots with anti-insulin receptor (IR); endogenous in cells; host or cells: MCF-7 (control and Herstatin-expressing clones)
# Method: as §1
# Methods. Cell lines, expression vectors, protein purification, pull down assays, antibodies, Western blot analysis and ELISA assays were as described under EXAMPLE I, herein above. Insulin was added either to MCF-7 breast carcinoma cells, or to an MCF-7 cell line stably transfected with a Herstatin expression vector, to determine whether Herstatin expression affects IR expression, and/or insulin-stimulated IR signal transduction.
# Results. […] Control and Herstatin-expressing MCF-7 cells were grown in complete medium prior to an overnight incubation in serum-free medium. Insulin was then added to the control and Herstatin-expressing cells and whole-cell lysates were prepared at the indicated times and processed directly for Western immunoblots with anti-insulin receptor (IR), phospho-Akt, Akt, phospho-ERK, and ERK antibodies, or first immunoprecipitated with anti-IR antibody and immunoprecipitates (IP) then analyzed by Western immunoblotting with anti-phosphotyrosine and anti-IR antibodies after transfer to nitrocellulose membranes. Following incubation of blots with primary antibodies, immunoreactive proteins were detected by enhanced chemiluminescence after a secondary incubation with HRP-conjugated secondary antisera. […]
# [2] = system: IRS-1, IRS-2, Shc, ERK1 and ERK2; experiment: Expression/phosphorylation state of insulin signaling proteins (IRS-1, IRS-2, Shc, ERK) in MCF-7 cells; assay type: cell-based, human; details: Herstatin-expressing MCF-7 cells vs control, no insulin
# Method: as §1, §2
# insulin receptor (IR) [3] = target: T2, insulin receptor (IR); experiment: Herstatin cell binding ELISA on IRA-3T3 cells; design: expressed in transfected cells; host or cells: NIH-3T3 (IRA-3T3); details: 3T3 cells transfected with human IR cDNA (IRA-3T3), purified Herstatin from S2 insect cells, 2 hrs on ice
# Method: (§3) ELISA. Monolayer cultures of ˜2×10^6 cells were plated in 6-well tissue culture plates, and were incubated with purified Herstatin for 2 hours at 4° C. in serum-free DMEM. Cells were washed with Phosphate Buffered Saline (PBS) and extracted in 50 mM Tris·HCl, pH 7.0, 1.0% NP-40. Herstatin bound to cells were quantified using a sandwich Herstatin ELISA per manufacturer's instructions (Upstate Biotechnology, Lake Placid, N.Y.).
# (§4) The dissociation constant (KD) and maximal binding (Bmax) of Herstatin were determined by nonlinear regression analysis of the plot of pmol of bound versus nM of Herstatin added. Statistical comparisons between different binding curves were performed by extra sums-of-squares F-test nonlinear regression coefficients. All tests were performed (α=0.05) using GraphPad™ Prism 4™ software (GraphPad™ Software, 1994-2003).
# (§5) Results. The interaction between Herstatin and IR was investigated. […] Increasing concentrations of Herstatin, expressed and purified from stably-transfected S2 insect cells, were added to 3T3 parental cells (filled triangles; “NIH-3T3”) or 3T3 cells transfected with a human IR cDNA (filled squares; “IRA-3T3”) as previously described (Shamieh et al., FEBS Letters, 568:163-166, 2004). After incubation for 2 hrs on ice, the cells were washed twice with PBS, and the bound Herstatin was quantified using a Herstatin ELISA (Upstate). […]
# P13K/Akt pathway = experiment: Insulin-stimulated Akt activation in MCF-7 cells; assay type: cell-based, human; details: Herstatin-expressing MCF-7 cells vs control
# Method: as §1, with “After washing, the blots were incubated with secondary antibody conjugated to HRP for 30 min (BioRad, Hercules, Calif.). The membranes were developed with SuperSignal™ West Dura (Pierce, Rockford, Ill.) and exposed to x-ray film.” left out
# Results. […] Insulin was then added to the control and Herstatin-expressing cells and whole-cell lysates were prepared at the indicated times and processed directly for Western immunoblots with anti-insulin receptor (IR), phospho-Akt, Akt, phospho-ERK, and ERK antibodies, or first immunoprecipitated with anti-IR antibody and immunoprecipitates (IP) then analyzed by Western immunoblotting with anti-phosphotyrosine and anti-IR antibodies after transfer to nitrocellulose membranes. Following incubation of blots with primary antibodies, immunoreactive proteins were detected by enhanced chemiluminescence after a secondary incubation with HRP-conjugated secondary antisera. […]
# 3T3 parental cells = experiment: Herstatin cell binding ELISA on parental cells; details: NIH-3T3 parental cells, 2 hrs on ice
# Method: as §3, §4, §5
# MAPK kinase (MEK) = details: Harmon et al., 2004; cited from earlier work
# insulin receptor = experiment: EGFR inhibitor study: insulin receptor level in MCF-7 cells; assay type: cell-based, human; details: 24-hour treatment in regular growth medium, FIG. 6
# Method: (§6) Control MCF-7 cells were serum-starved overnight and treated with the EGFR kinase inhibitor AG1478 (Sigma) or vehicle (DMSO) for 5 minutes prior to the addition of 14 nM EGF or 10 nM insulin (Sigma). After growth factor treatment, cell lysates were prepared and analyzed for ERK and Akt/PKB activation as described above. The 24-hour treatment was done in regular growth medium.
# insulin signaling = experiment: EGFR inhibitor study: insulin signaling (ERK and Akt/PKB activation) in control MCF-7 cells; assay type: cell-based, human; details: inhibitor 5 minutes prior to 10 nM insulin, FIG. 5
# Method: as §6
# [4] = Herstatin-expressing MCF-7 cells vs control MCF-7
molecule,measurement,setting,value
"Herstatin: secreted product of an HER-2 alternative transcript; cell surface receptor isoform (intron fusion protein), polypeptides of SEQ ID NO:2",decrease in IGF-IR expression,IGF-IR,~4 fold
same,accumulation of pro-IR,insulin receptor (IR) [1]; [4],induce the accumulation of pro-IR
same,up-regulation of basal IR expression,insulin receptor (IR) [1]; [4],several-fold
same,IR activation by insulin,"insulin receptor (IR) [1]; Herstatin-expressing MCF-7 cells, insulin added after overnight serum-free, anti-phosphotyrosine blot of IR IP",up-regulated IR activation
same,IRS-2 levels,[2],slight decrease
same,apparent serine phosphorylation of IRS-2,[2],decrease
same,apparent serine phosphorylation state of IRS-1,[2],decrease
same,relative expression of Shc isoforms,[2],alters the relative expression of Shc isoforms
same,relative expression ratio of ERK1 and ERK2,[2],increases the relative expression ratio of ERK1 and ERK2
same,Herstatin binding to cells expressing IR,insulin receptor (IR) [3],binds at nM concentrations
same,effect on insulin-stimulated activation of the P13K/Akt pathway,P13K/Akt pathway,little effect
same,Herstatin binding to 3T3 parental cells,3T3 parental cells,but not to 3T3 parental cells
COc1cccc(-c2cc(=O)c3ccccc3o2)c1N [PD-98059],inhibition of insulin-stimulated glucose uptake,MAPK kinase (MEK),significant inhibition
COc1cc2ncnc(Nc3cccc(Cl)c3)c2cc1OC [AS1478],increase in insulin receptor (IR),insulin receptor,does not Affect Insulin Signaling or Lead to an Increase in IR
same,effect on insulin signaling,insulin signaling,did not affect insulin signaling
N#CC(=C(/N)Sc1ccccc1N)/C(C#N)=C(/N)Sc1ccccc1N [U-0216],inhibition of insulin-stimulated glucose uptake,MAPK kinase (MEK),significant inhibition
